# Target: WDR5 (Homo sapiens, UniProt P61964)
# Test: Competition-based fluorescence polarization anisotropy assay
# Details: binding to WDR5; displacement of FITC-labeled small molecule probe (analogous to Example J2 or HCH-25) or peptide probe FITC-AHx-SEEEIDVVSV; pH 6.0; Ki converted from IC50
# Procedure: Compounds of the present invention were assessed for their ability to bind to WDr5 using a competition-based fluorescence polarization anisotropy assay, similar to the method previously described. […] Fluorescence polarization measurements were performed in 384-well plates (Greiner Bio One) using a Cytation 3 plate reader (BioTek). Fluorescein isothiocyanate (FITC)-labeled peptide probe ([…]) was purchased from GenScript USA Inc and used without further purification. […] The assay buffer contained 200 mM phosphate, 300 mM NaCl, and 0.5 mM TCEP and 0.1% Chaps at pH 6.0. […] This was converted into a binding dissociation constant (Ki value) according to the formula: […] Data shown in the table below represents a K; determined from this method for each Example, using either a fluorescently labeled small molecule probe analogous to Example J2 or Example HCH-25, or the peptide probe described above, in the assay.
row,Compound,Ki [µM]
1,"N#CC1(c2cc(NS(=O)(=O)c3cc(Br)cc(Cl)c3O)c(O)c(C(=O)O)c2)CCCCC1 [Example J234, 3-((5-Bromo-3-chloro-2-hydroxyphenyl)sulfonamido)-5-(1-cyanocyclohexyl)-2-hydroxybenzoic acid]",0.02
2,"O=S(=O)(Nc1cc(Cl)ccc1O)c1cc(Br)ccc1O [HCH-1-143-2, 5-Bromo-N-(5-chloro-2-hydroxyphenyl)-2-hydroxybenzenesulfonamide]",1.25
3,"N#CC1(c2cc(NS(=O)(=O)c3cc(Br)ccc3O)c(O)c(C(=O)O)c2)CCC1 [Example J203, 3-((5-Bromo-2-hydroxyphenyl)sulfonamido)-5-(1-cyanocyclobutyl)-2-hydroxybenzoic acid]",0.04
4,"O=C(O)c1cc(Cl)cc(NS(=O)(=O)c2cc(Br)cc([N+](=O)[O-])c2O)c1O [Example J6, 3-((5-Bromo-2-hydroxy-3-nitrophenyl)sulfonamido)-5-chloro-2-hydroxybenzoic acid]",0.11
5,"O=C(NCCN1CCOCC1)c1cc(NS(=O)(=O)c2cc(Br)ccc2O)cc(C2CC2)c1F [Example J137, 5-((5-Bromo-2-hydroxyphenyl)sulfonamido)-3-cyclopropyl-2-fluoro-N-(2-morpholinoethyl)benzamide]",2.98
6,"CC(C)(C)c1cc(NS(=O)(=O)c2cc(Br)ccc2O)c(O)c(C(=O)O)c1 [Example J201, 3-((5-Bromo-2-hydroxyphenyl)sulfonamido)-5-(tert-butyl)-2-hydroxybenzoic acid]",0.7
7,"N#CC1(c2cc(NS(=O)(=O)c3cc(Br)ccc3O)c(O)c(C(=O)NCc3ccc(=O)[nH]c3)c2)CCC1 [Example J230, 3-((5-Bromo-2-hydroxyphenyl)sulfonamido)-5-(1-cyanocyclobutyl)-2-hydroxy-N-((6-oxo-1,6-dihydropyridin-3-yl)methyl)benzamide]",0.63
8,"CC(C)[C@H](C)Nc1ccc(Br)cc1S(=O)(=O)Nc1cc(C2CC2)cc(C(=O)O)c1O [Example J76, (S)-3-((5-Bromo-2-((3-methylbutan-2-yl)amino)phenyl)sulfonamido)-5-cyclopropyl-2-hydroxybenzoic acid]",3.24
9,"CNC(=O)c1cc(C2CC2)cc(NS(=O)(=O)c2cc(Br)ccc2O)c1F [Example J141, 3-((5-Bromo-2-hydroxyphenyl)sulfonamido)-5-cyclopropyl-2-fluoro-N-methylbenzamide]",0.96
10,"O=C(NC1CCOC1)c1cc(Cl)cc(NS(=O)(=O)c2cc(Br)ccc2O)c1O (centres unmarked) [Example J18, 3-((5-Bromo-2-hydroxyphenyl)sulfonamido)-5-chloro-2-hydroxy-N-(tetrahydrofuran-3-yl)benzamide]",1.35
11,"CNC(=O)c1cc(OC(F)(F)F)cc(NS(=O)(=O)c2cc(Br)ccc2O)c1O [Example J162, 3-((5-Bromo-2-hydroxyphenyl)sulfonamido)-2-hydroxy-N-methyl-5-(trifluoromethoxy)benzamide]",0.41
12,"O=C(c1cc(OC(F)(F)F)cc(NS(=O)(=O)c2cc(Br)ccc2O)c1O)N1CCC[C@@H]1CO [Example J170, (R)-5-Bromo-2-hydroxy-N-(2-hydroxy-3-(2-(hydroxymethyl)pyrrolidine-1-carbonyl)-5-(trifluoromethoxy)phenyl)benzenesulfonamide]",2.84
13,"COc1ccc(Br)cc1S(=O)(=O)Nc1cc(Cl)cc(C(N)=O)c1O [Example J43, 3-((5-Bromo-2-methoxyphenyl)sulfonamido)-5-chloro-2-hydroxybenzamide]",1.15
14,"O=C(O)c1cc(C2CC2)cc(NS(=O)(=O)c2cc(Br)ccc2O)c1F [Example J112, 3-((5-Bromo-2-hydroxyphenyl)sulfonamido)-5-cyclopropyl-2-fluorobenzoic acid]",0.78
15,"O=C(NCCN1CCOCC1)c1cc(C2CC2)cc(NS(=O)(=O)c2cc(Br)cc(Cl)c2O)c1F [Example J158, 3-((5-Bromo-3-chloro-2-hydroxyphenyl)sulfonamido)-5-cyclopropyl-2-fluoro-N-(2-morpholinoethyl)benzamide]",0.32
16,"CNC(=O)c1cc(C2CC2)cc(NS(=O)(=O)c2cc(Br)cc(Cl)c2O)c1F [Example J156, 3-((5-Bromo-3-chloro-2-hydroxyphenyl)sulfonamido)-5-cyclopropyl-2-fluoro-N-methylbenzamide]",0.21
17,"N#CC1(c2cc(NS(=O)(=O)c3cc(Br)ccc3O)c(O)c(C(=O)NCc3cc[nH]c(=O)c3)c2)CCC1 [Example J222, 3-((5-Bromo-2-hydroxyphenyl)sulfonamido)-5-(1-cyanocyclobutyl)-2-hydroxy-N-((2-oxo-1,2-dihydropyridin-4-yl)methyl)benzamide]",0.41
18,"O=C(NC1COC1)c1c(O)c(NS(=O)(=O)c2cc(Br)ccc2O)cc(C2CC2)c1F [Example J128, 3-((5-Bromo-2-hydroxyphenyl)sulfonamido)-5-cyclopropyl-6-fluoro-2-hydroxy-N-(oxetan-3-yl)benzamide]",0.7
19,"COCCN(C)C(=O)c1cc(Cl)cc(NS(=O)(=O)c2cc(Br)ccc2OC)c1O [Example J58, 3-((5-Bromo-2-methoxyphenyl)sulfonamido)-5-chloro-2-hydroxy-N-(2-methoxyethyl)-N-methylbenzamide]",7.74
20,"O=C(NC[C@H]1CCCO1)c1cc(Cl)cc(NS(=O)(=O)c2cc(Br)ccc2O)c1O [Example J26, (R)-3-((5-Bromo-2-hydroxyphenyl)sulfonamido)-5-chloro-2-hydroxy-N-((tetrahydrofuran-2-yl)methyl)benzamide]",0.74
21,"COC[C@H]1CCCN1C(=O)c1cc(Cl)cc(NS(=O)(=O)c2cc(Br)ccc2O)c1O [Example J28, (R)-5-Bromo-N-(5-chloro-2-hydroxy-3-(2-(methoxymethyl)pyrrolidine-1-carbonyl)phenyl)-2-hydroxybenzenesulfonamide]",8.29
22,"COc1ccc(Br)cc1S(=O)(=O)Nc1cc(Cl)cc(C(=O)N2CCC[C@@H]2CO)c1O [Example J55, (R)-5-Bromo-N-(5-chloro-2-hydroxy-3-(2-(hydroxymethyl)pyrrolidine-1-carbonyl)phenyl)-2-methoxybenzenesulfonamide]",8.17
23,"O=C(O)c1cc(C2CC2)cc(NS(=O)(=O)c2cc(Br)ccc2NC2CC2)c1O [Example J73, 3-((5-Bromo-2-(cyclopropylamino)phenyl)sulfonamido)-5-cyclopropyl-2-hydroxybenzoic acid]",5.98
24,"CNC(=O)c1cc(OC(F)(F)F)cc(NS(=O)(=O)c2cc(Br)cc3cccnc23)c1O [Example J182, 3-((6-Bromoquinoline)-8-sulfonamido)-2-hydroxy-N-methyl-5-(trifluoromethoxy)benzamide]",1.06
25,"COc1ccc(Br)cc1S(=O)(=O)Nc1cc(C(=O)O)cc(C2=CCOCC2)c1 [Example J193, 3-((5-Bromo-2-methoxyphenyl)sulfonamido)-5-(3,6-dihydro-2H-pyran-4-yl)benzoic acid]",69.2
26,"CS(=O)(=O)c1cc(C2CC2)cc(NS(=O)(=O)c2cc(Br)cc(Cl)c2O)c1O [Example S25-2, 5-Bromo-3-chloro-N-(5-cyclopropyl-2-hydroxy-3-(methylsulfonyl)phenyl)-2-hydroxybenzenesulfonamide]",0.1

# Other lines, results leading:
row,Ki [µM],Compound
1,0.1,"CS(=O)(=O)c1cc(S(F)(F)(F)(F)F)cc(NS(=O)(=O)c2cc(Br)ccc2O)c1O [Example S19, 5-Bromo-2-hydroxy-N-(2-hydroxy-3-(methylsulfonyl)-5-(pentafluoro-λ^6-sulfaneyl)phenyl)benzenesulfonamide]"
2,0.34,"CCN(CC)CCS(=O)(=O)c1cc(Cl)cc(NS(=O)(=O)c2cc(Br)cc(Cl)c2O)c1 [Example S35, 5-Bromo-3-chloro-N-(3-chloro-5-((2-(diethylamino)ethyl)sulfonyl)phenyl)-2-hydroxybenzenesulfonamide]"
3,0.32,"CCC(O)CNC(=O)c1cc(OC(F)(F)F)cc(NS(=O)(=O)c2cc(Br)cc(F)c2O)c1O (centres unmarked) [HCH-39, 3-((5-Bromo-3-fluoro-2-hydroxyphenyl)sulfonamido)-2-hydroxy-N-(2-hydroxybutyl)-5-(trifluoromethoxy)benzamide]"
4,7.24,"COc1cc(OC)c(S(=O)(=O)Nc2cc(Cl)cc([N+](=O)[O-])c2O)cc1Br [NE8, 5-Bromo-N-(5-chloro-2-hydroxy-3-nitrophenyl)-2,4-dimethoxybenzenesulfonamide]"
5,1.23,"CS(=O)(=O)c1cc(Cl)cc(NS(=O)(=O)c2cc(Br)ccc2O)c1 [Example S6, 5-Bromo-N-(3-chloro-5-(methylsulfonyl)phenyl)-2-hydroxybenzenesulfonamide]"
6,31.3,"CCN(CC)CCS(=O)(=O)c1cc(Cl)cc(NS(=O)(=O)c2cc(Br)cc3cccnc23)c1 [Example S43, 6-Bromo-N-(3-chloro-5-((2-(diethylamino)ethyl)sulfonyl)phenyl)quinoline-8-sulfonamide]"
7,0.5,"CS(=O)(=O)c1cc(Br)cc(NS(=O)(=O)c2cc(Br)cc(OC(F)(F)F)c2O)c1 [Example S3, 5-Bromo-N-(3-bromo-5-(methylsulfonyl)phenyl)-2-hydroxy-3-(trifluoromethoxy)benzenesulfonamide]"
8,2.93,"CNC(=O)c1cc(Cl)cc(NS(=O)(=O)c2cc(Br)ccc2O)c1 [Example S70, 3-((5-Bromo-2-hydroxyphenyl)sulfonamido)-5-chloro-N-methylbenzamide]"
9,0.2,"O=S(=O)(Nc1cc(C2CC2)cc(S(=O)(=O)C2CCCO2)c1)c1cc(Br)cc(Cl)c1O (centres unmarked) [Example S16, 5-Bromo-3-chloro-N-(3-cyclopropyl-5-((tetrahydrofuran-2-yl)sulfonyl)phenyl)-2-hydroxybenzenesulfonamide]"

# — US12398097B2, “WDR5-MYC inhibitors” (Vanderbilt University, priority 2019, dated 2025)
